How the values were obtained:
[1] = tolerability and absorption of Compound A from transdermal patches; format: in vivo
Procedure: The transdermal devices of the invention in general have, for example an effective contact area of pharmaceutical composition on the skin of from about 1 to about 80 square centimeters, preferably about 10 square centimeters, and are intended to be applied at intervals of about once every 1 to 7 days, preferably 1-3 days. […] Compound A may, for example be administered at a dose of 8 mg in a patch of ca. 10 cm^2, once every day. The patch may be applied, for example on the abdomen, thigh, behind an ear, or on a shoulder or upper arm.
(§1) Higher dosages are possible, for example 4.5 mg twice daily and even 6 mg twice daily. Tolerability is seen to be even better for the transdermal device, wherein 24 mg were absorbed in 24 hours.

[2] = tolerability of Compound A given orally; format: in vivo; settings: oral, initial dose 1.5 mg twice a day, stepped up to 3 mg twice daily in week 2
Procedure: as §1

[3] = degradation testing of Compound A and of the prior-art transdermal composition; format: physicochemical; settings: particularly in the presence of oxygen; prior-art composition in occlusive polymer matrix and air-tight packaging

CCN(C)C(=O)Oc1cccc([C@H](C)N(C)C)c1 [Compound A]
tolerability of transdermal device compared with oral ([1]; transdermal device, 24 mg absorbed in 24 hours): even better
amount absorbed ([1]; transdermal device, in 24 hours): 24 mg
tolerability ([1]; transdermal, 36 mg free base in up to 80 cm^2 of patches): well tolerated
amount absorbed ([1]; transdermal, patches up to 80 cm^2 containing 36 mg compound A): 12 mg
tolerability [2]: well tolerated
susceptibility to degradation [3]: susceptible to degradation
